Experiments:
[1] = target: T1, rat adrenergic α1B receptor (Rattus norvegicus, UniProt P15823); assay: Radioligand binding, adrenergic α1B receptor ([3H]Prazosin); details: 0.1 μM compound, Wistar rat liver, read-out: Percentage inhibition of ligand binding, Adrenergic α1B
T1 construct: rat adrenergic α1B receptor obtained from Wistar Rat liver; from tissue; host or cells: Wistar rat liver
T1 sequence (P15823 1-515): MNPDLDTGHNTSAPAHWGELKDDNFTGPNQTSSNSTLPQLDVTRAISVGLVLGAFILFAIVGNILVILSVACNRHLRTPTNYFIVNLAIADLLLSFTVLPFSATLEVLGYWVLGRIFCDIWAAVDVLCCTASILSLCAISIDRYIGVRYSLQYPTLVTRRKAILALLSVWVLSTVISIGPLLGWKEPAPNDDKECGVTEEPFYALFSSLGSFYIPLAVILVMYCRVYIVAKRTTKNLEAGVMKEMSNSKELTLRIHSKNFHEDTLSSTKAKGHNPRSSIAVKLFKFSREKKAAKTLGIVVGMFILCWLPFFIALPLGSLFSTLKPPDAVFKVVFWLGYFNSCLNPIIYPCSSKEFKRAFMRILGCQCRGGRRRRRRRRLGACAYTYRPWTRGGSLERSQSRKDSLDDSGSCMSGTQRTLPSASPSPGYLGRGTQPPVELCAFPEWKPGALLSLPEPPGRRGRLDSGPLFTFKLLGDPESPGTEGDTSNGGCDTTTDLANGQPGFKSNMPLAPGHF
Description: To evaluate in radioligand binding assays the activity of compounds, rat adrenergic α1B receptor obtained from Wistar Rat liver (Garcia-S' ainz, J. et al, Biochem. Biophys. Res. Commun. 186:760, 1992; Michel, A. et al, Br. J. Pharmacol. 98:883, 1989) in a modified Tris-HCl buffer (50 mM Tris-HCl buffer, pH 7.4, 0.5 mM EDTA) was used. Compounds were incubated with 0.25 nM [^3H]Prazosin for 60 min at […]. Non-specific binding was estimated in the presence of 10 μM phentolamine. Receptor proteins were filtered and washed, the filters were then counted to determine [^3H]Prazosin specifically bound. Compounds were screened at 1 μM or lower, using 1% DMSO as vehicle. Compounds were tested in this biochemical assay and percent inhibition of specific binding was determined. Biochemical assay results are presented as the percent inhibition of specific binding in Table 2.

[2] = target: T2, human recombinant adrenergic α2A receptor (Homo sapiens, UniProt P08913); assay: Radioligand binding, adrenergic α2A receptor ([3H]MK-912); details: 0.1 μM compound; Sf9 cells; 1 nM [3H]MK-912; read-out: Percentage inhibition of ligand binding, Adrenergic α2A
T2 construct: expressed in transfected cells; host or cells: insect Sf9 cells
T2 sequence (P08913 1-465): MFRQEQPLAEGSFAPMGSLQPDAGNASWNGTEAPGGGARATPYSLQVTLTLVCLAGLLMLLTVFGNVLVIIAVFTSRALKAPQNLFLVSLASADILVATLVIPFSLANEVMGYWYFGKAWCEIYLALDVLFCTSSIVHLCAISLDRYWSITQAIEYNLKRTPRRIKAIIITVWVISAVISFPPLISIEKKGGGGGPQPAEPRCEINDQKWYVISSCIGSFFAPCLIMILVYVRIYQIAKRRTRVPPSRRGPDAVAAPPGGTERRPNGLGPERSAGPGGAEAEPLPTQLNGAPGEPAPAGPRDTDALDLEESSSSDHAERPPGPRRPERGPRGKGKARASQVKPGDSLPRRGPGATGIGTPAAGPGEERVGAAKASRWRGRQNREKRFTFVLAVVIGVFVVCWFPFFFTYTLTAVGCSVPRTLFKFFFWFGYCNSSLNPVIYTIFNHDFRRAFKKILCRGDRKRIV
Description: To evaluate in radioligand binding assays the activity of compounds, human recombinant adrenergic α2A receptor expressed in insect Sf9 cells (Uhlen, S. et al, J. Pharmacol. Exp. Ther. 271:1558, 1994) in a modified Tris-HCl buffer (50 mM Tris-HCl, pH 7.4, 12.5 mM MgCl2, 2 mM EDTA) was used. Compounds were incubated with 1 nM [^3H]MK-912 for 60 min at 25° C. MK912 is (2S-trans)-1,3,4,5′,6,6′,7,12b-octahydro-1′,3′-dimethyl-spiro[2H-benzofuro[2,3-a]quinolizine-2,4′(1′H)-pyrimidin]-2′(3′H)-one hydrochloride Non-specific binding was estimated in the presence of 10 μM WB-4101 (2-(2,6-Dimethoxyphenoxyethyl)aminoethyl-1,4-benzodioxane hydrochloride). Receptor proteins were filtered and washed, the filters were then counted to determine [^3H]MK-912 specifically bound. Compounds were screened at 1 μM or lower, using 1% DMSO as vehicle. Compounds were tested in this biochemical assay and percent inhibition of specific binding was determined. Biochemical assay results are presented as the percent inhibition of specific binding in Table 2.

[3] = target: T3, human recombinant adrenergic α2B receptor (Homo sapiens, UniProt P18089); assay: Radioligand binding, adrenergic α2B receptor ([3H]Rauwolscine); details: 0.1 μM compound, CHO-K1 cells, read-out: Percentage inhibition of ligand binding, Adrenergic α2B
T3 construct: expressed in transfected cells; host or cells: CHO-K1
T3 sequence (P18089 1-450): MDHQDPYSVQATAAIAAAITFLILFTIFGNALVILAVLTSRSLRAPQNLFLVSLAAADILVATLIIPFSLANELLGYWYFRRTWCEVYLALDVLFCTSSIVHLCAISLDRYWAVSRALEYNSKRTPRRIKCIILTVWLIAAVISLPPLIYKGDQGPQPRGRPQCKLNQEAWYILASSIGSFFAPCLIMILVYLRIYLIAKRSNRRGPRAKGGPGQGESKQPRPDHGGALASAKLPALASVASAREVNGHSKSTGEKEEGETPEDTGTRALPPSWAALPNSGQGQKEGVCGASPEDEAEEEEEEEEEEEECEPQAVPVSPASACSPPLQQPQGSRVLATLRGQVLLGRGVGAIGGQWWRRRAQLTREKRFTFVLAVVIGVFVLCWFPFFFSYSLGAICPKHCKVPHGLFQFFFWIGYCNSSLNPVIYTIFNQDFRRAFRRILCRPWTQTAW
Description: To evaluate in radioligand binding assays the activity of compounds, human recombinant adrenergic α2B receptor expressed in Chinese hamster ovary (CHO) K1 cells (Uhlen, S. et al, Eur. J. Pharmacol. 343(1):93, 1998) in a modified Tris-HCl buffer (50 mM Tris-HCl, pH 7.4, 12.5 mM MgCl2, 1 mM EDTA, 0.2% BSA) was used. Compounds were incubated with 2.5 nM [^3H]Rauwolscine for 60 min at 25° C. Non-specific binding was estimated in the presence of 10 μM Prazosin. Receptor proteins were filtered and washed, the filters were then counted to determine [^3H]Rauwolscine specifically bound. Compounds were screened at 1 μM or lower, using 1% DMSO as vehicle. Compounds were tested in this biochemical assay and percent inhibition of specific binding was determined. Biochemical assay results are presented as the percent inhibition of specific binding in Table 2.

[4] = target: T4, human recombinant adrenergic α1D receptor (Homo sapiens, UniProt P25100); assay: Radioligand binding, adrenergic α1D receptor ([3H]Prazosin); details: 0.1 μM compound; HEK-293 cells; 0.6 nM [3H]Prazosin; read-out: Percentage inhibition of ligand binding, Adrenergic α1D
T4 construct: expressed in transfected cells; host or cells: HEK-293
T4 sequence (P25100 1-572): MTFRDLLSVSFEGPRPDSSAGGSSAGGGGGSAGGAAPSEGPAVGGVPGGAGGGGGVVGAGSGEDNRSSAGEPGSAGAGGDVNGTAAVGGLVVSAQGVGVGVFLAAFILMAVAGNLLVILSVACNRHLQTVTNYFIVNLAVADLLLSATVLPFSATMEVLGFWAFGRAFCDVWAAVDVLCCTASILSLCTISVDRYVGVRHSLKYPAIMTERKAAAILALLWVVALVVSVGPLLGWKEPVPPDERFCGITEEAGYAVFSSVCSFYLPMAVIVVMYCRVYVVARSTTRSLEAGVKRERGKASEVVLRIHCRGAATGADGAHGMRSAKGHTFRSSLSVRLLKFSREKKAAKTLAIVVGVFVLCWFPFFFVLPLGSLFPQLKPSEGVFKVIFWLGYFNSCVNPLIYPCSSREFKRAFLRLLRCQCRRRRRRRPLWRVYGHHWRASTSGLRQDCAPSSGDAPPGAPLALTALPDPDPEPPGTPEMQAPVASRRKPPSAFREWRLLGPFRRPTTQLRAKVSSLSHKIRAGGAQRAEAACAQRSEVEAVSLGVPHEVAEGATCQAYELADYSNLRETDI
Description: Compounds were incubated with 0.6 nM [3H]Prazosin for 60 min at 25° C. Non-specific binding was estimated in the presence of 10 μM phentolamine. Receptor proteins were filtered and washed, the filters were then counted to determine [3H]Prazosin specifically bound. Compounds were screened at 1 μM or lower, using 1% DMSO as vehicle. Biochemical assay results are presented as the percent inhibition of specific binding in Table 2.

Cc1ccc2c(c1)c1c(n2-c2cccc(-c3cncc4ccccc34)c2)CCN(C)C1 [Compound No. 67, 5-(3-(isoquinolin-4-yl)phenyl)-2,8-dimethyl-2,3,4,5-tetrahydro-1H-pyrido[4,3-b]indole]
inhibition at 0.1 µM [1]: 2% | inhibition at 0.1 µM [2]: 39% | inhibition at 0.1 µM [3]: 13% | inhibition at 0.1 µM [4]: -1%

Cc1ccc2c(c1)c1c(n2-c2cccc(-c3cccn3C)c2)CCN(C)C1 [Compound No. 69, 2,8-dimethyl-5-(3-(1-methyl-1H-pyrrol-2-yl)phenyl)-2,3,4,5-tetrahydro-1H-pyrido[4,3-b]indole]
inhibition at 0.1 µM [1]: 11% | inhibition at 0.1 µM [2]: 39% | inhibition at 0.1 µM [3]: 3% | inhibition at 0.1 µM [4]: 9%

Cc1ccc2c(c1)c1c(n2-c2ccccc2-c2ccc(F)nc2)CCN(C)C1 [Compound No. 84, 5-(2-(6-fluoropyridin-3-yl)phenyl)-2,8-dimethyl-2,3,4,5-tetrahydro-1H-pyrido[4,3-b]indole]
inhibition at 0.1 µM [1]: 54% | inhibition at 0.1 µM [2]: 68% | inhibition at 0.1 µM [3]: 89% | inhibition at 0.1 µM [4]: 58%

Cc1ccc2c(c1)c1c(n2-c2ccoc2)CCN(C)C1 [Compound 15, 5-furan-3-yl-2,8-dimethyl-2,3,4,5-tetrahydro-1H-pyrido[4,3-b]indole]
inhibition at 0.1 µM [1]: 35% | inhibition at 0.1 µM [2]: 10% | inhibition at 0.1 µM [3]: 30% | inhibition at 0.1 µM [4]: 19%

Cc1ccc2c(c1)c1c(n2-c2ccc(-c3cnn(C)c3)cn2)CCN(C)C1 [Compound No. 134, 2,8-dimethyl-5-(5-(1-methyl-1H-pyrazol-4-yl)pyridin-2-yl)-2,3,4,5-tetrahydro-1H-pyrido[4,3-b]indole]
inhibition at 0.1 µM [1]: 43% | inhibition at 0.1 µM [2]: 38% | inhibition at 0.1 µM [3]: 73% | inhibition at 0.1 µM [4]: 30%

CNC(=O)c1ccc(-c2cccc(-n3c4c(c5cc(C)ccc53)CN(C)CC4)c2)cn1 [Compound No. 75, 5-(3-(2,8-dimethyl-3,4-dihydro-1H-pyrido[4,3-b]indol-5(2H)-yl)phenyl)-N-methylpicolinamide]
inhibition at 0.1 µM [1]: 20% | inhibition at 0.1 µM [2]: 21% | inhibition at 0.1 µM [3]: 16% | inhibition at 0.1 µM [4]: 15%

CC(=O)Nc1ccc(-c2ccc(-n3c4c(c5cc(C)ccc53)CN(C)CC4)nc2)cn1 [Compound No. 139, N-(6′-(2,8-dimethyl-3,4-dihydro-1H-pyrido[4,3-b]indol-5(2H)-yl)-3,3′-bipyridin-6-yl)acetamide]
inhibition at 0.1 µM [1]: 55% | inhibition at 0.1 µM [2]: 18% | inhibition at 0.1 µM [3]: 59% | inhibition at 0.1 µM [4]: 45%

Cc1ccc2c(c1)c1c(n2-c2ccccc2-c2ccc(F)cc2)CCN(C)C1 [Compound 10, 5-(4′-fluoro-biphenyl-2-yl)-2,8-dimethyl-2,3,4,5-tetrahydro-1H-pyrido[4,3-b]indole]
inhibition at 0.1 µM [1]: 61% | inhibition at 0.1 µM [2]: 88% | inhibition at 0.1 µM [3]: 85% | inhibition at 0.1 µM [4]: 63%

Cc1cc(C)c2c(c1)c1c(n2-c2cccc3ncccc23)CCN(C)C1 [Compound 47]
inhibition at 0.1 µM [1]: 5% | inhibition at 0.1 µM [2]: 62% | inhibition at 0.1 µM [3]: 6% | inhibition at 0.1 µM [4]: 3%

Cc1ccc2c(c1)c1c(n2-c2cccc(-c3ccc4[nH]cnc4c3)c2)CCN(C)C1 [Compound 54, 5-(3-(1H-benzo[d]imidazol-5-yl)phenyl)-2,8-dimethyl-2,3,4,5-tetrahydro-1H-pyrido[4,3-b]indole]
inhibition at 0.1 µM [1]: 8% | inhibition at 0.1 µM [2]: 23% | inhibition at 0.1 µM [3]: 3% | inhibition at 0.1 µM [4]: -3%

Cc1ccc2c(c1)c1c(n2-c2cccc(-c3ccc(O)nc3)c2)CCN(C)C1 [Compound 52, 5-(3-(2,8-dimethyl-3,4-dihydro-1H-pyrido[4,3-b]indol-5(2H)-yl)phenyl)pyridin-2-ol]
inhibition at 0.1 µM [1]: 6% | inhibition at 0.1 µM [2]: 43% | inhibition at 0.1 µM [3]: 36% | inhibition at 0.1 µM [4]: -3%

Cc1csc(-c2ccccc2-n2c3c(c4cc(C)ccc42)CN(C)CC3)c1 [Compound 36]
inhibition at 0.1 µM [1]: 13% | inhibition at 0.1 µM [2]: 90% | inhibition at 0.1 µM [3]: 79% | inhibition at 0.1 µM [4]: 26%

Reference: US20140155384A1, “COMPOUNDS AND METHODS OF TREATING DIABETES” (Medivation Technologies, Inc., priority 2011, published 2014)
